Our source for the Kd values is article PMC6145842 (Biochemical and biophysical research communications, 2018).

For this assay, the target named is T1, DXO (Mus musculus, UniProt O70348).
T1 sequence (O70348 1-397): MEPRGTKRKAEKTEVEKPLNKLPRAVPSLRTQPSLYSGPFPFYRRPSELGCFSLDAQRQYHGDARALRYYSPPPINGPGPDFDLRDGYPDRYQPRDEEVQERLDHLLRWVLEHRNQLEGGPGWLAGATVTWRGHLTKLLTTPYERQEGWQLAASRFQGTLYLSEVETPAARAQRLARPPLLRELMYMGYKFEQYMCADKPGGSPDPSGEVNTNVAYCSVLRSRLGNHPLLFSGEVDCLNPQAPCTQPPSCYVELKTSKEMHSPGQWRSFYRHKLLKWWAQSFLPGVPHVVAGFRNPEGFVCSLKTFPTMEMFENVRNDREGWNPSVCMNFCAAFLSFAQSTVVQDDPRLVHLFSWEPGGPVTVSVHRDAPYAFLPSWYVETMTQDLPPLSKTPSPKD
The experiment in a line: crystal structure at […] Å. Type of assay: binding.

By Kd is commonly meant the concentration at which binding is half-saturated. A low value points to higher affinity. `Nc1ncnc2c1ncn2[C@@H]1O[C@H](COP(=O)(O)O)[C@@H](OP(=O)(O)O)[C@H]1O` [pAp, adenosine 3’,5’-bisphosphate] gave a dissociation constant (Kd) of 20 to 30 mM.
